Laboratory results published in ChEMBL document CHEMBL2321853, “Novel acylethanolamide derivatives that modulate body weight through enhancement of hypothalamic pro-opiomelanocortin (POMC) and/or decreased neuropeptide Y (NPY)” (J Med Chem, 2013).
Calls of active or inactive are those of the source. No cut-off for these calls is given here.

How the values were obtained:
Mus musculus [1] = assay: Antiobesity activity in Sabra mouse assessed as reduction in body weight at 1 mg/kg, ip administered on day 0, 10, 11, 12, 24, 29 measured on day 39 relative to control; type: functional; set-up: scale not given: the % may be the effect or the level left; conditions: route intraperitoneal
Mus musculus [2] = assay: Antiobesity activity in Sabra mouse assessed as reduction in body weight at 1 mg/kg, ip administered on day 0, 10, 11, 12, 24, 29 measured on day 36 relative to control; type: functional; set-up: scale not given: the % may be the effect or the level left; conditions: route intraperitoneal
Mus musculus [3] = assay: Antiobesity activity in Sabra mouse assessed as reduction in body weight at 1 mg/kg, ip administered on day 0, 10, 11, 12, 24, 29 measured on day 29 relative to control; type: functional; set-up: scale not given: the % may be the effect or the level left; conditions: route intraperitoneal
Mus musculus [4] = assay: Antiobesity activity in Sabra mouse assessed as reduction in body weight at 1 mg/kg, ip administered on day 0, 10, 11, 12, 24, 29 measured on day 33 relative to control; type: functional; set-up: scale not given: the % may be the effect or the level left; conditions: route intraperitoneal
Mus musculus [5] = assay: Antiobesity activity in Sabra mouse assessed as reduction in body weight at 1 mg/kg, ip administered on day 0, 10, 11, 12, 24, 29 measured on day 26 relative to control; type: functional; set-up: scale not given: the % may be the effect or the level left; conditions: route intraperitoneal
Mus musculus [6] = assay: Antiobesity activity in Sabra mouse assessed as reduction in body weight at 1 mg/kg, ip administered on day 0, 10, 11, 12, 24, 29 measured on day 24 relative to control; type: functional; set-up: scale not given: the % may be the effect or the level left; conditions: route intraperitoneal
Mus musculus [7] = assay: Antiobesity activity in Sabra mouse assessed as reduction in body weight at 1 mg/kg, ip administered on day 0, 10, 11, 12, 24, 29 measured on day 22 relative to control; type: functional; set-up: scale not given: the % may be the effect or the level left; conditions: route intraperitoneal
Mus musculus [8] = assay: Antiobesity activity in Sabra mouse assessed as reduction in body weight at 1 mg/kg, ip administered on day 0, 10, 11, 12, 24, 29 measured on day 19 relative to control; type: functional; set-up: scale not given: the % may be the effect or the level left; conditions: route intraperitoneal
Mus musculus [9] = assay: Antiobesity activity in Sabra mouse assessed as reduction in body weight at 1 mg/kg, ip administered on day 0, 10, 11, 12, 24, 29 measured on day 12 relative to control; type: functional; set-up: scale not given: the % may be the effect or the level left; conditions: route intraperitoneal
[10] = target: T1, Glucose-dependent insulinotropic receptor (Homo sapiens, UniProt Q8TDV5); assay: Agonist activity at recombinant GPR119 receptor (unknown origin)
T1 sequence (Q8TDV5 whole entry): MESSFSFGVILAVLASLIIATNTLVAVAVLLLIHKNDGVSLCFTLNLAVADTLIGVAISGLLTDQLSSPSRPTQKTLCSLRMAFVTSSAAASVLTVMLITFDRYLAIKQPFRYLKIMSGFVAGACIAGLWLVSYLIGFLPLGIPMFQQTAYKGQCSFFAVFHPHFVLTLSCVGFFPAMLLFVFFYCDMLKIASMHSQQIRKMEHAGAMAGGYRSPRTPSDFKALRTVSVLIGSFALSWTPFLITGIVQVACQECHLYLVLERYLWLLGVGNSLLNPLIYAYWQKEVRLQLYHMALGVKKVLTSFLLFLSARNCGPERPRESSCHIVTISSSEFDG

[11] = target: T2, Transient receptor potential cation channel subfamily V member 1 (Homo sapiens, UniProt Q8NER1); assay: Agonist activity at TRPV1 receptor (unknown origin)
T2 sequence (Q8NER1 whole entry): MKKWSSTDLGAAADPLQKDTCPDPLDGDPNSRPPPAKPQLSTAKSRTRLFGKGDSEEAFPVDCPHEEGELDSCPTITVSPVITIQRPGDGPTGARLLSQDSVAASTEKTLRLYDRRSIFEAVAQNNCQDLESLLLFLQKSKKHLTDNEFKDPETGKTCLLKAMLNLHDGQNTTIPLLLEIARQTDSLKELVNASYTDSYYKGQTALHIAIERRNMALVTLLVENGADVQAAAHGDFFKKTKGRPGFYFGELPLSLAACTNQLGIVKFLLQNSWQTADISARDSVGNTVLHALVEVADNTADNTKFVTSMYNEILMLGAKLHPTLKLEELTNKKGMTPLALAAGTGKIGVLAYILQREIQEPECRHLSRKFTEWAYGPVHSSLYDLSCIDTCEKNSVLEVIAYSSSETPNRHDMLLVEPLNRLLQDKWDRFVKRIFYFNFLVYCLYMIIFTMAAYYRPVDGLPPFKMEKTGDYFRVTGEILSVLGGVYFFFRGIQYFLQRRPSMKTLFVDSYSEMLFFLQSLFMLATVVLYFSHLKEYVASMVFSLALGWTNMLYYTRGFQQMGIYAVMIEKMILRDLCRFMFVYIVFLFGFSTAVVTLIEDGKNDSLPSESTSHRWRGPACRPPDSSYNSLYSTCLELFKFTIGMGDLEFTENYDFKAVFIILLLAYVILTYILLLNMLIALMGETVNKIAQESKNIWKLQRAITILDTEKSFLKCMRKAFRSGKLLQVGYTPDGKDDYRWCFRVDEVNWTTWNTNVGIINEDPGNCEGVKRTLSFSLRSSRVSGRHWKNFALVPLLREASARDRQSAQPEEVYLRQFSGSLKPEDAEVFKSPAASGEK

[12] = target: T2, Transient receptor potential cation channel subfamily V member 1; assay: Activation of TRPV1 in HEK293 cells; type: cell-based
[13] = target: Transient receptor potential cation channel subfamily V member 1 (Rattus norvegicus) (UniProt O35433); assay: Activation of TRPV1 in rat blood vessels; type: tissue-based; conditions: Blood vessel
Chain of Transient receptor potential cation channel subfamily V member 1 (Rattus norvegicus) (O35433 whole entry): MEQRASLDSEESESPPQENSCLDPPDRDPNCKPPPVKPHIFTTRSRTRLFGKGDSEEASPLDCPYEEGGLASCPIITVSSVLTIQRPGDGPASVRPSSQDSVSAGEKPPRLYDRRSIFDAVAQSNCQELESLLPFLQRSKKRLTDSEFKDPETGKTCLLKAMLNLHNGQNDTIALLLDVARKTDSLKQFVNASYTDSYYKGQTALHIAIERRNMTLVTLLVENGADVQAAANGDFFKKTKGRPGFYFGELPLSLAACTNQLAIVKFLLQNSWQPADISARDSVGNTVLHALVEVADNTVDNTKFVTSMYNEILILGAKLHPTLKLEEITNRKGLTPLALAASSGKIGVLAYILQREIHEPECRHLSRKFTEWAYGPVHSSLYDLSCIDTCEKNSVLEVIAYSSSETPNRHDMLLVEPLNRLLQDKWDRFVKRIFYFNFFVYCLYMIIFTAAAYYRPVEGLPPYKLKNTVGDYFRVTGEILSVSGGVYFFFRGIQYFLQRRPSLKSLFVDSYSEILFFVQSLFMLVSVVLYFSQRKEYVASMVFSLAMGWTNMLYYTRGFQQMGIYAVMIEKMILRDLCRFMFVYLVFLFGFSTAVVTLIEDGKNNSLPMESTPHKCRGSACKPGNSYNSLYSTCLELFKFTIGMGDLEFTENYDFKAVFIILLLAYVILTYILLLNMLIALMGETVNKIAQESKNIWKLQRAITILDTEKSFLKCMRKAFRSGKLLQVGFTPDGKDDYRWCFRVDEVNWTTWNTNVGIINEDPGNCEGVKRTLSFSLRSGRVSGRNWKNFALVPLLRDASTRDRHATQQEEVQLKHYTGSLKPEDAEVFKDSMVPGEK

What does the source list for CCCCCCCC/C=C\CCCCCCCC(=O)N(C)CCO?
Activity (Mus musculus [1]): -3.67%; Activity (Mus musculus [2]): -3.28%; Activity (Mus musculus [3]): -1.44%; Activity (Mus musculus [4]): -0.3%; Activity (Mus musculus [5]): -0.5%; Activity (Mus musculus [6]): 0.03%; Activity (Mus musculus [7]): -0.48%; Activity (Mus musculus [8]): -0.48%; Activity (Mus musculus [9]): -0.61%

What does the source list for CCCCCCCC/C=C\CCCCCCCC(=O)NCCO [OLEOYLETHANOLAMIDE]?
EC50 [10]: 3200 nM; EC50 [11]: 40 nM; Activity (Mus musculus [1]): -3.42%; Activity (Mus musculus [2]): -2.57%; Activity (Mus musculus [3]): -0.2%; Activity (Mus musculus [4]): -0.15%; Activity (Mus musculus [5]): 1.43%; Activity (Mus musculus [6]): -0.18%; Activity (Mus musculus [7]): -1.17%; Activity (Mus musculus [8]): -1.17%; Activity (Mus musculus [9]): -0.23%

For CCCCCCCCCCCCCCCC(=O)NCCO, which Activity [12] is on record?
The Activity was “inactive”.

And the Activity [13]?
The Activity was “inactive”.

With CCCCC/C=C\C/C=C\C/C=C\C/C=C\CCCC(=O)NCCO [ANANDAMIDE] as the compound, how does the EC50 [11] read?
Its EC50 is 15.8 nM.
